One block for each molecule: values may come before it.
What was measured:
[1] = target: T1, recombinant cytosolic TK-1 (Homo sapiens, UniProt P04183); assay: Phosphorylation of [CH3-3H]dThd by recombinant TK-1; type: biochemical
T1 sequence (P04183 1-234): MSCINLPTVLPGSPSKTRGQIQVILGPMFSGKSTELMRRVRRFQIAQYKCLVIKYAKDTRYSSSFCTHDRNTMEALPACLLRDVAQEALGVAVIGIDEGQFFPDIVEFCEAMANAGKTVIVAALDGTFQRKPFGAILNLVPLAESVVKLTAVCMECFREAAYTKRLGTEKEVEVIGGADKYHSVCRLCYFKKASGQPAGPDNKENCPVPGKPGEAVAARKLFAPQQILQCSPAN
Description: (§1) A 50 μl reaction mixture, containing 50 mM Tris-HCl, pH 8.0, 2.5 mM MgCl2, 10 mM dithiothreitol, 2.5 mM ATP, 1.0 mg ml^−1 bovine serum albumin, 10 mM NaF, [CH3-^3H]dThd (0.1 μCi in 5 μl; 1 μM final concentration) and 5 μl of recombinant enzyme, was incubated at 37°C for 30 min in the presence or absence of different concentrations of dCTP or KIN52.

[2] = test system: MDA MB231 cells; assay: Separation of cellular FLT and FLT-phosphate by TLC; type: cell-based, human; conditions: one hour after adding FLT
Text: To discriminate between FLT and FLT-phosphate, cells in another identical plate were harvested and after stopping the enzyme reaction, cells were sonificated and spun down. 3′-deoxy-3′-[^18F]fluorothymidine and FLT-phosphate, present in the supernatant were separated as described above (section TK enzyme activity).

[3] = target: T2, purified TK-2 (Homo sapiens, UniProt O00142); assay: FLT phosphorylation by purified TK-2; type: biochemical
T2 construct: gift: A. Karlsson, Karolinska Institute, Stockholm, Sweden
T2 sequence (O00142 34-265): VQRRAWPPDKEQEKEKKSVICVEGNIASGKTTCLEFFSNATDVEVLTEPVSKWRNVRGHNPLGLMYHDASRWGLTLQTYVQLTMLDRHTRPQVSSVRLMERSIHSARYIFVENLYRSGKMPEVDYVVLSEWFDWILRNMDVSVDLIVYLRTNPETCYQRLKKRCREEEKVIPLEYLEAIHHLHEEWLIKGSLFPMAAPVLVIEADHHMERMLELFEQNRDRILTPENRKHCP
Description: (§2) 3′-deoxy-3′-[^18F]fluorothymidine was diluted with 50 mM Tris/1 mM EDTA (pH 7.4) and 1 : 1 mixed with 20 mM ATP, 10 mM MgCl2, resulting in an FLT concentration of about 60 MBq ml^−1 (6.32–18.89 pmol per sample). […] was inhibited by addition of dCTP or the specific TK-2 inhibitor KIN52 (final concentration 2 μM) ([Balzarini et al, 2003]).
(§3) The assay was optimised for protein concentration and incubation times. Diluted cell lysates or purified TK-2 (kindly provided by A. Karlsson, Karolinska Institute, Stockholm, Sweden) were incubated with the FLT mixture for 15 min at 37°C and the reaction was stopped by heating the samples at 95°C for 5 min. Substrate (FLT) and product (FLT-phosphate) were separated by TLC and radioactivity was measured in a single-well gamma counter (Wallac1480 Wizard, Perkin Elmer Lifescience, MA, USA). Protein concentrations were measured in a Bio-Rad Bradford protein assay (Bio-Rad Laboratories, Hercules, CA, USA). Thymidine kinase activity was calculated as the amount of FLT converted into FLT-phosphate per hour per million cells (nmol h^−1 10^−6 cells).

[4] = target: T3, recombinant mitochondrial TK-2 (Homo sapiens, UniProt O00142); assay: Phosphorylation of [CH3-3H]dThd by recombinant TK-2; type: biochemical
T3 sequence (O00142 34-265): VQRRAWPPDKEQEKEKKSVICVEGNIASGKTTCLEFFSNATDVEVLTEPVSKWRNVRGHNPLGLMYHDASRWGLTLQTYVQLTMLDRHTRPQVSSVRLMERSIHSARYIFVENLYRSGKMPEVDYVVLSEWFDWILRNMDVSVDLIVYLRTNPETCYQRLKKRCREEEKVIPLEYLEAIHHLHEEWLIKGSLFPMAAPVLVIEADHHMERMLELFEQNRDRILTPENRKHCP
Description: as §1, with “[…] A 50” for “A 50”, “or KIN52. During this time, the enzyme reaction proceeded linearly. Formation of tritiated dTMP was measured by spotting aliquots of the reaction mixture on Whatman DE-81 filter paper disks, as described earlier ([Balzarini et al, 2003]).” for “or KIN52.”

[5] = test system: cellular TK activities (MDA MB231 cell lysates); assay: Inhibition of cellular TK activity by TK-2 inhibitors added to cell lysates; type: biochemical, human; conditions: dCTP 10 μM added to cell lysates
Description: Cell pellets were suspended in 50 mM Tris/1 mM EDTA (pH 7.4) and sonificated on ice. Lysates were spun down and supernatant diluted 1 : 8 in 50 mM Tris/1 mM EDTA (pH 7.4).
as §2, §3

[6] = substrate: Cc1cn([C@H]2C[C@H](O)[C@@H](CO)O2)c(=O)[nH]c1=O; assay: Phosphorylation of [CH3-3H]dThd by recombinant TK-2; type: biochemical; conditions: other: TK-2, Lineweaver–Burk; pH 8.0; 37.0 °C
Description: as §1, with “[…] A 50” for “A 50”, “or KIN52. During this time, the enzyme reaction proceeded linearly. Formation of tritiated dTMP was measured by spotting aliquots of the reaction mixture on Whatman DE-81 filter paper disks, as described earlier ([Balzarini et al, 2003]).” for “or KIN52.”

- Ki ([1]; TK-1, competitive vs dThd, read-out: Ki FLT): 1.9 µM
- conversion of FLT into FLT-phosphate ([3]; FLT added to purified TK-2): 8%
- Ki/Km ([4]; TK-2): 3.2
- Ki ([4]; TK-2, competitive vs dThd, read-out: Ki FLT): 4.2 µM
Molecule: Cc1cn([C@H]2C[C@H]([18F])[C@@H](CO)O2)c(=O)[nH]c1=O [FLT, 3′-deoxy-3′-[^18F]fluorothymidine]
- cellular radioactivity as unphosphorylated FLT [2]: less than 20%
- cellular radioactivity counts due to FLT phosphate [2]: more than 80%

- IC50 ([1]; TK-1, 1 μM [CH3-3H]dThd as substrate): ~5 µM
- inhibition of FLT phosphorylation by TK-2 ([3]; dCTP 10 mM): 97%
- IC50 ([4]; TK-2, 1 μM [CH3-3H]dThd as substrate): ~50 µM
Molecule: Nc1ccn([C@H]2C[C@H](O)[C@@H](COP(=O)(O)OP(=O)(O)OP(=O)(O)O)O2)c(=O)n1 [dCTP]
- inhibition of cellular TK activities [5]: 55–90%

B1: recombinant mitochondrial TK-2 (Homo sapiens) (protein)
chain: VQRRAWPPDKEQEKEKKSVICVEGNIASGKTTCLEFFSNATDVEVLTEPVSKWRNVRGHNPLGLMYHDASRWGLTLQTYVQLTMLDRHTRPQVSSVRLMERSIHSARYIFVENLYRSGKMPEVDYVVLSEWFDWILRNMDVSVDLIVYLRTNPETCYQRLKKRCREEEKVIPLEYLEAIHHLHEEWLIKGSLFPMAAPVLVIEADHHMERMLELFEQNRDRILTPENRKHCP
- Km [6]: 1.3 µM

Source: PMC2527810, “[^18F]FDG and [^18F]FLT uptake in human breast cancer cells in relation to the effects of chemotherapy: an in vitro study” (British Journal of Cancer, 2008)
